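Assay format: 96-well plates, 48-hour exposure. At the TGI there is no net growth.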
Tests used:
Test in all cases: DTP human tumour cell line panel, 48 h
DMS 114 small cell lung = tested on: DMS 114 small cell lung
DLD-1 colon = tested on: DLD-1 colon
K-562 leukemia = tested on: K-562 leukemia
XF 498 CNS = tested on: XF 498 CNS
MOLT-4 leukemia = tested on: MOLT-4 leukemia
NCI-H23 lung = tested on: NCI-H23 lung
MALME-3M melanoma = tested on: MALME-3M melanoma
CCRF-CEM leukemia = tested on: CCRF-CEM leukemia
A549 NSCLC = tested on: A549 NSCLC
EKVX NSCLC = tested on: EKVX NSCLC
UACC-257 melanoma = tested on: UACC-257 melanoma
NCI-H226 lung = tested on: NCI-H226 lung
ACHN renal = tested on: ACHN renal
HL-60(TB) leukemia = tested on: HL-60(TB) leukemia
SR leukemia = tested on: SR leukemia
RPMI-8226 leukemia = tested on: RPMI-8226 leukemia
OVCAR-8 ovarian = tested on: OVCAR-8 ovarian
SN12C renal = tested on: SN12C renal
SNB-75 CNS = tested on: SNB-75 CNS
NCI-H460 lung = tested on: NCI-H460 lung
KM12 colon = tested on: KM12 colon
SF-539 CNS = tested on: SF-539 CNS
SF-295 CNS = tested on: SF-295 CNS
SF-268 CNS = tested on: SF-268 CNS
TK-10 renal = tested on: TK-10 renal
KM20L2 colon = tested on: KM20L2 colon
UO-31 renal = tested on: UO-31 renal
UACC-62 melanoma = tested on: UACC-62 melanoma
COLO 205 colon = tested on: COLO 205 colon
U251 CNS = tested on: U251 CNS
HOP-62 NSCLC = tested on: HOP-62 NSCLC
M14 melanoma = tested on: M14 melanoma
SNB-19 CNS = tested on: SNB-19 CNS
NCI-H522 lung = tested on: NCI-H522 lung
SW-620 colon = tested on: SW-620 colon
OVCAR-3 ovarian = tested on: OVCAR-3 ovarian
IGROV1 ovarian = tested on: IGROV1 ovarian
SK-MEL-28 melanoma = tested on: SK-MEL-28 melanoma
HT29 colon = tested on: HT29 colon
OVCAR-5 ovarian = tested on: OVCAR-5 ovarian
OVCAR-4 ovarian = tested on: OVCAR-4 ovarian
DMS 273 small cell lung = tested on: DMS 273 small cell lung
HCT-116 colon = tested on: HCT-116 colon
SK-MEL-5 melanoma = tested on: SK-MEL-5 melanoma
SNB-78 CNS = tested on: SNB-78 CNS
LXFL 529 NSCLC = tested on: LXFL 529 NSCLC
HCT-15 colon = tested on: HCT-15 colon
HOP-92 NSCLC = tested on: HOP-92 NSCLC
SK-OV-3 ovarian = tested on: SK-OV-3 ovarian
M19-MEL melanoma = tested on: M19-MEL melanoma
SK-MEL-2 melanoma = tested on: SK-MEL-2 melanoma
LOX IMVI melanoma = tested on: LOX IMVI melanoma
CAKI-1 renal = tested on: CAKI-1 renal
786-0 renal = tested on: 786-0 renal
HCC-2998 colon = tested on: HCC-2998 colon
A498 renal = tested on: A498 renal
RXF 393 renal = tested on: RXF 393 renal

Measured: TGI

O=[N+]([O-])c1nccn1COCCI
not listed: HCC-2998 colon | A498 renal | RXF 393 renal
> 100 µM: all other assays above

C=CCN1C2Cc3cc(OC)c(OC)cc3C1Cc1cc(OC)c(OC)cc12
not listed: DMS 114 small cell lung | NCI-H226 lung | HL-60(TB) leukemia | SR leukemia | SF-539 CNS | UACC-62 melanoma | COLO 205 colon | IGROV1 ovarian | DMS 273 small cell lung | HCT-116 colon | HOP-92 NSCLC | SK-OV-3 ovarian | M19-MEL melanoma | LOX IMVI melanoma | RXF 393 renal
> 100 µM: all other assays above

CC1=C(O)C(=O)C2C(=O)C1C(C)C2c1ccc(C)cc1 (stereo not drawn)
not listed: DMS 114 small cell lung | NCI-H226 lung | HL-60(TB) leukemia | SN12C renal | HCT-116 colon
> 100 µM: all other assays above
